From patent US11800869B2, “Use of 6-oxo-1,4,5,6-tetrahydropyridazine-3-carboxylic acid, 1-methyl 6-oxo-1,4,5,6-tetrahydropyridazine-3-carboxylic acid and 1-alkyl-6-oxo-1,4,5,6-tetrahydropyridazine-3-carboxylic acid for improving growth performance in plants” (Advanced Crop Chem LLP, priority 2020, dated 2023)

Experiments:
Format in all cases: in vivo
Wheat seeds = experiment: Wheat seed treatment, germination paper, shoot and root fresh weights (Example 9); details: pH 5.7-5.8, germination paper 75-85° F; for Shoot fresh weight: Control 27.4; for Roots fresh weight: Control 29.1
Protocol: Wheat seeds were treated with 6-oxo-1,4,5,6 tetrahydropyridazine-3-carboxylic acid and the shoot and root fresh weights as shown in Table 1. Shoot and root fresh weights at this stage are components of early seedling emergence which is important for early establishment of a vigorous and productive crop. Wheat seeds were treated with a solution of either 0.1 mM or 0.01 mM 6-oxo-1,4,5,6 tetrahydropyridazine-3-carboxylic acid in an aqueous solution at pH 5.7-5.8. The seeds were placed on moist germination paper and allowed to germinate at 75-85° F. The control seeds were imbibed in aqueous solution containing only the soft soap and glycerol.

Wheat = experiment: Foliar treatment dose series, root and shoot fresh weight, wheat (Example 8); details: 35 days post treatment; for Root, FWt: dose 0: 1.8; for Shoot, FWt: dose 0: 3.2
Protocol: Corn and wheat plants were given a foliar treatment […] (as described in Example 2) with 6-oxo-1,4,5,6 tetrahydropyridazine-3-carboxylic acid (THP) and then assessed for root and shoot biomass. Three treatment dosages were applied (Table 2). Plants were grown in a greenhouse with a diurnal cycle of 55-75F with ambient light. The plants were grown in a coarse river sand in 4″ pots with 0.5 g of Osmacote/pot. The mean root and shoot fresh weights were assessed at 35 days post treatment.

[1] = system: Wheat plants (Variety AWC 13); experiment: Foliar treatment of wheat, foliar and root dry biomass (Example 5); details: foliar treatment at Zadoks GS 15-20, 30 days after application, mean of 10 plants
Description: Wheat plants (Variety AWC 13) were given a foliar treatment of 6-oxo-1,4,5,6-tetrahydropyridazine-3-carboxylic acid(THP) or 1-methyl 6-oxo-1,4,5,6 tetrahydropyridazine-3-carboxylic acid (MTHP) and their foliar and root dry biomass determined 30 days after application. The foliar applications were applied at approximately at Zadoks GS 15-20 (see FIG. 1) and assessed 30 days later at Zadoks GS 22-24 (also shown in FIG. 1).

Pepper = experiment: Seed treatment plus foliar spray, root and shoot biomass and emergence, pepper (Example 2)
Protocol: Winter wheat variety AWC 13 seeds were treated with either 6-oxo-1,4,5,6-tetrahydropyridazine-3-carboxylic acid (THP) or 1-methyl 6-oxo-1,4,5,6 tetrahydropyridazine-3-carboxylic acid (MTHP) at an effective rate of 10g diluted in 2 L water plus 0.25% Nouryon wetter and applied to 1 ton of seed. These seed were planted in coarse river sand and grown in a greenhouse under ambient light at the greenhouse at 21° C. Plants were irrigated every other day with water containing 50% strength Hoaglands solution. Plants were assessed for emergence and biomass accumulation 30 days after planting. The plants from seeds treated with 6-oxo-1,4,5,6-tetrahydropyridizin-3-carboxylic acid or 1-methyl 6-oxo-1,4,5,6 tetrahydropyridazine-3-carboxylic acid had larger root biomasses (0.83, 0.85 g, dry weight/plant) compared with plants from untreated seeds (0.65 g dry weight/plant). Wheat, corn and pepper seeds were treated with 6-oxo-1,4,5,6-tetrahydropyridizine-3-carboxylic acid (THP) using the same methodology and growth conditions as described in example 1 and the resulting plants were also treated with a light foliar cover spray using an electric hand-held sprayer. (100 g in 200 L water plus 0.25% Nouryon wetter) of 6-oxo-1,4,5,6 tetrahydropyridazine-3-carboxylic acid (30 days post emergence (wheat at Zadoks GS 14 (see FIG. 1), maize at V2, Pepper at 3-4 leaf stage) and then assessed for root and shoot biomass 45 days later. At 75 days post planting the plants were assessed for root and shoot biomass as measured with dry weight.

[2] = system: Winter wheat variety AWC 13; experiment: Wheat seed treatment, greenhouse, root biomass (Example 1); details: seed treatment 10g per 1 ton of seed; greenhouse 21° C; 30 days after planting; untreated 0.65
Protocol: Wheat seeds were treated with 6-oxo-1,4,5,6 tetrahydropyridazine-3-carboxylic acid (THP) and treated plants to examine the impact on shoot and root biomass. Winter wheat variety AWC 13 seeds were treated with either 6-oxo-1,4,5,6-tetrahydropyridazine-3-carboxylic acid (THP) or 1-methyl 6-oxo-1,4,5,6 tetrahydropyridazine-3-carboxylic acid (MTHP) at an effective rate of 10g diluted in 2 L water plus 0.25% Nouryon wetter and applied to 1 ton of seed. These seed were planted in coarse river sand and grown in a greenhouse under ambient light at the greenhouse at 21° C. Plants were irrigated every other day with water containing 50% strength Hoaglands solution. Plants were assessed for emergence and biomass accumulation 30 days after planting. The plants from seeds treated with 6-oxo-1,4,5,6-tetrahydropyridizin-3-carboxylic acid or 1-methyl 6-oxo-1,4,5,6 tetrahydropyridazine-3-carboxylic acid had larger root biomasses (0.83, 0.85 g, dry weight/plant) compared with plants from untreated seeds (0.65 g dry weight/plant).

[3] = system: Soybean seeds, cv. Viking; experiment: Soybean seed treatment, root nodulation by Bradyrhizobium japonicum (Example 19); details: seed treatment 0.1 mM; greenhouse 75° F; 4 weeks after planting; untreated 655.8 mg
Protocol: Soybean seed were treated with 6-oxo-1,4,5,6 tetrahydropyridazine-3-carboxylic acid to examine the effect on root nodulation by a nitrogen fixing bacterium.
Soybean seeds, cv. Viking, were treated with 6-oxo-1,4,5,6 tetrahydropyridazine-3-carboxylic acid (0.1 mM) and the resulting seedlings were grown in a greenhouse at 75° F. under natural light during a winter season. The extent of root nodulation by Bradyrhizobium japonicum, a nitrogen fixing bacterium was determined 4 weeks after planting. Plants from the untreated seeds averaged 655.8 mg of nodules per plant versus 763.7 mg for the plants from treated seeds.

[4] = system: wheat seedlings (Var. VitPro); experiment: Foliar treatment of wheat seedlings, number of tillers (Example 13); details: counted at Zadoks GS 15, untreated 3.7
Protocol: Wheat seedlings were given foliar treatments with a range of concentrations of 6-oxo-1,4,5,6 tetrahydropyridazine-3-carboxylic acid and the seedlings were grown and the numbers of tillers each plant produced was monitored as shown in Table 4. The number of tillers is considered positively related to grain yield. Sets of wheat seedlings (Var. VitPro) were given foliar treatments of 6-oxo-1,4,5,6 tetrahydropyridazine-3-carboxylic acid at concentrations of 0.1 mM, 0.01 mM or 0.001 mM *in a standard nutrient solution. Seedlings were given one foliar treatment at Zadoks GS 12 (FIG. 1); the plants grown in a greenhouse and fed a standard plant nutrient solution. The untreated control plants were sprayed with the nutrient solution containing sodium dodecyl sulfate, 0.1% and glycerol 1.2%. The number of tillers for each plant were counted at Zadoks GS 15 (FIG. 1) and the average number of tillers per plant calculated.

[5] = foliar dose 50 g/ha in 200 L/ha
[6] = foliar dose 100 g/ha in 200 L/ha
[7] = foliar dose 200 g/ha in 200 L/ha
[8] = seed treatment plus foliar spray 100 g in 200 L, 75 days post planting

With `O=C1CCC(C(=O)O)=NN1` [THP, 6-oxo-1,4,5,6 tetrahydropyridazine-3-carboxylic acid] the Shoot fresh weight (Wheat seeds; seed treatment 0.01 mM) was 44.7 mg, the Roots fresh weight (Wheat seeds; seed treatment 0.01 mM) was 48.1 mg and the Shoot fresh weight (Wheat seeds; seed treatment 0.1 mM) was 42.1 mg. For the same compound, the Roots fresh weight (Wheat seeds; seed treatment 0.1 mM) was 43.8 mg, the “Root, FWt” value (Wheat; [5]) was 2.1 g and the “Shoot, FWt” value (Wheat; [5]) was 4.4 g. The “Root, FWt” value (Wheat; [6]) was 1.9 g, the “Shoot, FWt” value (Wheat; [6]) was 5.2 g and the “Root, FWt” value (Wheat; [7]) was 2.7 g. For the same compound, the “Shoot, FWt” value (Wheat; [7]) was 5.8 g, the “Dry Weight Shoot” value ([1]; Con 0.47) was 1.01 and the “Dry Weight Root” value ([1]; Con 0.65) was 1.5. The “Root Dry Weight, % Difference vs Untreated” value (Pepper; [8]) was 19%, the “Shoot Dry Weight, % Difference vs Untreated” value (Pepper; [8]) was 9% and the “Emergence, % Difference vs Untreated” value (Pepper; seed treatment, % Emergence at 10 days post planting) was 24%. For the same compound, the root biomass [2] was 0.83 g, dry weight/plant, the nodules per plant [3] was 763.7 mg and the “Tillers per plant, average” value ([4]; foliar treatment 0.001 mM at Zadoks GS 12) was 4.1. For the same compound, the “Tillers per plant, average” value ([4]; foliar treatment 0.01 mM at Zadoks GS 12) was 9.5 and the “Tillers per plant, average” value ([4]; foliar treatment 0.1 mM at Zadoks GS 12) was 7.4.
